Laboratory results reported in ChEMBL document CHEMBL4390649, “Fine-tuning the neuroprotective and blood-brain barrier permeability profile of multi-target agents designed to prevent progressive mitochondrial dysfunction” (Eur J Med Chem, 2019).
Activity calls are given as the source filed them. The rule behind the calls is not given here.

Tested on: SH-SY5Y
Test: Neuroprotective activity against TBHP-induced oxidative damage in human SH-SY5Y cells assessed as increase in cell viability at 10 uM pretreated for 24 hrs followed by TBHP stimulation measured after 4 hrs by MTT assay relative to control
Assay type: functional, cell-based
Conditions: not given

Row | SMILES | Activity
1 | CS(=O)(=O)[O-].O=C(Cc1cc(O)c(O)c(O)c1)NCCCCCCCCCC[P+](c1ccccc1)(c1ccccc1)c1ccccc1 | inactive
2 | CS(=O)(=O)[O-].O=C(CCc1ccc(O)c(O)c1)NCCCCCC[P+](c1ccccc1)(c1ccccc1)c1ccccc1 | inactive

Tested on: not listed separately
Test: Cytotoxicity against human SH-SY5Y cells assessed as cell metabolic activity at 50 uM incubated for 24 hrs by MTT assay relative to control
Assay type: ADME, cell-based
Conditions: read-out: Activity

Row | SMILES | viability at 24 h, 50 µM [%]
3 | CS(=O)(=O)[O-].O=C(Cc1cc(O)c(O)c(O)c1)NCCCCCCCCCC[P+](c1ccccc1)(c1ccccc1)c1ccccc1 | 95.3
4 | CS(=O)(=O)[O-].O=C(CCc1ccc(O)c(O)c1)NCCCCCC[P+](c1ccccc1)(c1ccccc1)c1ccccc1 | 97.5

Tested on: not listed separately
Test: Cytotoxicity against human HepG2 cells assessed as cell metabolic activity at 10 uM incubated for 48 hrs by resazurin assay relative to control
Assay type: ADME, cell-based
Conditions: read-out: Activity

Row | SMILES | viability at 48 h, 10 µM [%]
5 | CS(=O)(=O)[O-].O=C(Cc1cc(O)c(O)c(O)c1)NCCCCCCCCCC[P+](c1ccccc1)(c1ccccc1)c1ccccc1 | 102
6 | CS(=O)(=O)[O-].O=C(CCc1ccc(O)c(O)c1)NCCCCCC[P+](c1ccccc1)(c1ccccc1)c1ccccc1 | 104

Tested on: not listed separately
Test: Antioxidant activity assessed as DPPH radical scavenging activity measured after 45 mins by UV-Visible spectrophotometric based assay
Assay type: functional
Conditions: not given

Row | SMILES | IC50 [µM]
7 | CS(=O)(=O)[O-].O=C(Cc1cc(O)c(O)c(O)c1)NCCCCCCCCCC[P+](c1ccccc1)(c1ccccc1)c1ccccc1 | 20.7
8 | CS(=O)(=O)[O-].O=C(CCc1ccc(O)c(O)c1)NCCCCCC[P+](c1ccccc1)(c1ccccc1)c1ccccc1 | 55.6

Tested on: not listed separately
Test: Antioxidant activity assessed as ABTS radical scavenging activity measured after 15 mins by UV-Visible spectrophotometric based assay
Assay type: functional
Conditions: not given

Row | SMILES | IC50 [µM]
9 | CS(=O)(=O)[O-].O=C(Cc1cc(O)c(O)c(O)c1)NCCCCCCCCCC[P+](c1ccccc1)(c1ccccc1)c1ccccc1 | 7.6
10 | CS(=O)(=O)[O-].O=C(CCc1ccc(O)c(O)c1)NCCCCCC[P+](c1ccccc1)(c1ccccc1)c1ccccc1 | 28.3

Tested on: not listed separately
Test: Electrochemical behavior of the compound assessed as redox potential corrected toward saturated Ag/AgCl reference electrode by cyclic voltammetry
Conditions: not given

Row | SMILES | Activity [mV]
11 | CS(=O)(=O)[O-].O=C(Cc1cc(O)c(O)c(O)c1)NCCCCCCCCCC[P+](c1ccccc1)(c1ccccc1)c1ccccc1 | 11
12 | CS(=O)(=O)[O-].O=C(CCc1ccc(O)c(O)c1)NCCCCCC[P+](c1ccccc1)(c1ccccc1)c1ccccc1 | 132

Tested on: not listed separately
Test: Electrochemical behavior of the compound assessed as redox potential corrected toward saturated Ag/AgCl reference electrode by differential pulse voltammetry
Conditions: not given

Row | SMILES | Activity [mV]
13 | CS(=O)(=O)[O-].O=C(Cc1cc(O)c(O)c(O)c1)NCCCCCCCCCC[P+](c1ccccc1)(c1ccccc1)c1ccccc1 | 594
14 | CS(=O)(=O)[O-].O=C(CCc1ccc(O)c(O)c1)NCCCCCC[P+](c1ccccc1)(c1ccccc1)c1ccccc1 | 132

Tested on: not listed separately
Test: Metal chelating activity assessed as compound-Fe2+ complex formation at 100 uM incubated for 10 mins by ferrozine spectrophotometric assay
Conditions: not given

Row | SMILES | Activity [%]
15 | CS(=O)(=O)[O-].O=C(Cc1cc(O)c(O)c(O)c1)NCCCCCCCCCC[P+](c1ccccc1)(c1ccccc1)c1ccccc1 | > 80
16 | CS(=O)(=O)[O-].O=C(CCc1ccc(O)c(O)c1)NCCCCCC[P+](c1ccccc1)(c1ccccc1)c1ccccc1 | > 80

Tested on: not listed separately
Test: Cytotoxicity against human SH-SY5Y cells assessed as cell metabolic activity at 10 uM incubated for 24 hrs by MTT assay relative to control
Assay type: ADME, cell-based
Conditions: read-out: Activity

Row | SMILES | viability at 24 h, 10 µM [%]
17 | CS(=O)(=O)[O-].O=C(Cc1cc(O)c(O)c(O)c1)NCCCCCCCCCC[P+](c1ccccc1)(c1ccccc1)c1ccccc1 | 95.2
18 | CS(=O)(=O)[O-].O=C(CCc1ccc(O)c(O)c1)NCCCCCC[P+](c1ccccc1)(c1ccccc1)c1ccccc1 | 93.5

Tested on: not listed separately
Test: Cytotoxicity against human HepG2 cells assessed as cell metabolic activity at 50 uM incubated for 48 hrs by resazurin assay relative to control
Assay type: ADME, cell-based
Conditions: read-out: Activity

Row | SMILES | viability at 48 h, 50 µM [%]
19 | CS(=O)(=O)[O-].O=C(Cc1cc(O)c(O)c(O)c1)NCCCCCCCCCC[P+](c1ccccc1)(c1ccccc1)c1ccccc1 | 93.6
20 | CS(=O)(=O)[O-].O=C(CCc1ccc(O)c(O)c1)NCCCCCC[P+](c1ccccc1)(c1ccccc1)c1ccccc1 | 99.3

Tested on: SH-SY5Y
Test: Induction of ROS generation in human SH-SY5Y cells at 50 uM incubated for 24 hrs by DCFH-DA probe based fluorescence assay relative to control
Assay type: functional
Conditions: not given

Row | SMILES | Activity
21 | CS(=O)(=O)[O-].O=C(Cc1cc(O)c(O)c(O)c1)NCCCCCCCCCC[P+](c1ccccc1)(c1ccccc1)c1ccccc1 | Active
22 | CS(=O)(=O)[O-].O=C(CCc1ccc(O)c(O)c1)NCCCCCC[P+](c1ccccc1)(c1ccccc1)c1ccccc1 | 83.1%

Tested on: SH-SY5Y
Test: Neuroprotective activity against 6-OHDA-induced toxicity in human SH-SY5Y cells assessed as reduction in cell damage at 10 to 50 uM pretreated for 24 hrs followed by 6-OHDA challenge and measured after 24 hrs by MTT assay relative to control
Assay type: functional
Design: scale not given: the % may be the effect or the level left
Conditions: not given

Row | SMILES | Activity
23 | CS(=O)(=O)[O-].O=C(Cc1cc(O)c(O)c(O)c1)NCCCCCCCCCC[P+](c1ccccc1)(c1ccccc1)c1ccccc1 | 66.5 - 70.2%
24 | CS(=O)(=O)[O-].O=C(CCc1ccc(O)c(O)c1)NCCCCCC[P+](c1ccccc1)(c1ccccc1)c1ccccc1 | Active

Tested on: SH-SY5Y
Test: Neuroprotective activity against H2O2-induced oxidative damage in human SH-SY5Y cells assessed as reduction in cell damage at 10 uM pretreated for 24 hrs followed by H2O2 challenge measured after 30 mins by MTT assay relative to control
Assay type: functional
Design: scale not given: the % may be the effect or the level left
Conditions: not given

Row | SMILES | Activity
25 | CS(=O)(=O)[O-].O=C(Cc1cc(O)c(O)c(O)c1)NCCCCCCCCCC[P+](c1ccccc1)(c1ccccc1)c1ccccc1 | 70.8 - 83.3%

Tested on: SH-SY5Y
Test: Neuroprotective activity against H2O2-induced oxidative damage in human SH-SY5Y cells assessed as reduction in cell damage at 50 uM pretreated for 24 hrs followed by H2O2 challenge measured after 30 mins by MTT assay relative to control
Assay type: functional
Design: scale not given: the % may be the effect or the level left
Conditions: not given

Row | SMILES | Activity
26 | CS(=O)(=O)[O-].O=C(Cc1cc(O)c(O)c(O)c1)NCCCCCCCCCC[P+](c1ccccc1)(c1ccccc1)c1ccccc1 | 70.8 - 83.3%
27 | CS(=O)(=O)[O-].O=C(CCc1ccc(O)c(O)c1)NCCCCCC[P+](c1ccccc1)(c1ccccc1)c1ccccc1 | Active

Tested on: SH-SY5Y
Test: Neuroprotective activity against TBHP-induced oxidative damage in human SH-SY5Y cells assessed as increase in cell viability at 50 uM pretreated for 24 hrs followed by TBHP stimulation measured after 4 hrs by MTT assay relative to control
Assay type: functional
Conditions: not given

Row | SMILES | Activity
28 | CS(=O)(=O)[O-].O=C(Cc1cc(O)c(O)c(O)c1)NCCCCCCCCCC[P+](c1ccccc1)(c1ccccc1)c1ccccc1 | inactive
29 | CS(=O)(=O)[O-].O=C(CCc1ccc(O)c(O)c1)NCCCCCC[P+](c1ccccc1)(c1ccccc1)c1ccccc1 | inactive

Tested on: not listed separately
Test: Cytotoxicity against human CMEC/D3 cells assessed as reduction in cell viability at 50 to 100 uM incubated for 4 hrs by MTT assay relative to control
Assay type: cell-based
Conditions: hcmec/d3, 4 h

Row | SMILES | Activity
30 | CS(=O)(=O)[O-].O=C(Cc1cc(O)c(O)c(O)c1)NCCCCCCCCCC[P+](c1ccccc1)(c1ccccc1)c1ccccc1 | Non-Toxic
31 | CS(=O)(=O)[O-].O=C(CCc1ccc(O)c(O)c1)NCCCCCC[P+](c1ccccc1)(c1ccccc1)c1ccccc1 | Non-Toxic

Tested on: not listed separately
Test: Apparent permeability across apical to basolateral side in human CMEC/D3 cells at 100 uM incubated up to 180 mins by UV-VIS spectroscopic method
Assay type: ADME, cell-based
Conditions: hcmec/d3, 3 h

Row | SMILES | permeability [%]
32 | CS(=O)(=O)[O-].O=C(Cc1cc(O)c(O)c(O)c1)NCCCCCCCCCC[P+](c1ccccc1)(c1ccccc1)c1ccccc1 | 27.7
33 | CS(=O)(=O)[O-].O=C(CCc1ccc(O)c(O)c1)NCCCCCC[P+](c1ccccc1)(c1ccccc1)c1ccccc1 | 24.6

Tested on: not listed separately
Test: Apparent permeability across apical to basolateral side in human CMEC/D3 cells at 100 uM incubated by UV-VIS spectroscopic method
Assay type: ADME, cell-based
Conditions: hcmec/d3, 100 µM, TDE = time-dependent effect

Row | SMILES | permeability
34 | CS(=O)(=O)[O-].O=C(Cc1cc(O)c(O)c(O)c1)NCCCCCCCCCC[P+](c1ccccc1)(c1ccccc1)c1ccccc1 | Tde
35 | CS(=O)(=O)[O-].O=C(CCc1ccc(O)c(O)c1)NCCCCCC[P+](c1ccccc1)(c1ccccc1)c1ccccc1 | Tde
